Source: PMC11689655, “High-throughput screening of dual-target inhibitors for SARS-CoV-2 main protease and papain-like protease from Chebulae Fructus: in silico prediction and experimental verification” (Frontiers in Microbiology, 2024)
Like-named read-outs stand apart in the source and are kept apart here.

Experiments:
SARS-CoV-2 PL^pro [1] = biological target: T1, SARS-CoV-2 PL^pro (Severe acute respiratory syndrome coronavirus 2, UniProt P0DTD1); assay: SPR assay, PL^pro; assay type: binding; settings: Biacore T200, CM5 chip, kinetics analysis
SARS-CoV-2 wild-type = assay: Antiviral activity (CPE inhibition) in Vero E6 cells, wild-type; assay type: cell-based; settings: read-out: EC50 against SARS-CoV-2 wild-type strain
in vitro = settings: African green monkey
SARS-CoV-2 M^pro [2] = biological target: T2, SARS-CoV-2 M^pro (Severe acute respiratory syndrome coronavirus 2, UniProt P0DTD1); assay: biochemical; settings: FRET
SARS-CoV-2 M^pro [3] = biological target: T2, SARS-CoV-2 M^pro; assay: biochemical; assay type: binding; settings: SPR, Biacore T200, CM5 chip, kinetics analysis
SARS-CoV-2 PL^pro [4] = biological target: T1, SARS-CoV-2 PL^pro; assay: FRET enzymatic inhibition assay, PL^pro; assay type: biochemical
[5] = Cytotoxicity by CCK8 assay; settings: African green monkey
[6] = Severe acute respiratory syndrome coronavirus 2, Vero C1008, MOI = 0.01, 48 h

| SMILES | Kd (SARS-CoV-2 PL^pro [1]) | EC50 (SARS-CoV-2 wild-type; [6]) | CC50 (in vitro) | IC50 (SARS-CoV-2 M^pro [2]; 0.2 μM M^pro, 20 μM substrate, mean ± SD, n = 3, read-out: IC50 against M^pro) | inhibition at 40 µM (SARS-CoV-2 M^pro [2]; compound 40 μM, read-out: inhibition effect on M^pro) | Kd (SARS-CoV-2 M^pro [3]) | IC50 (SARS-CoV-2 PL^pro [4]; 1.0 μM PL^pro, 10 μM substrate, mean ± SD, n = 3, read-out: IC50 against PL^pro) | inhibition at 40 µM (SARS-CoV-2 PL^pro [4]; compound 40 μM, read-out: inhibition effect on PL^pro) | CC50 [5] | EC50 (SARS-CoV-2 wild-type; MOI = 0.01, 48 h) |
| --- | --- | --- | --- | --- | --- | --- | --- | --- | --- | --- |
| O=C(OC[C@H]1O[C@@H](OC(=O)c2cc(O)c(O)c(O)c2)[C@H](OC(=O)c2cc(O)c(O)c(O)c2)[C@@H](OC(=O)c2cc(O)c(O)c(O)c2)[C@@H]1O)c1cc(O)c(O)c(O)c1 [TGG, 1,2,3,6-tetra-O-galloyl-β-D-glucose] | 0.776 µM | 13 µM | > 100 µM | 1.33 ± 0.47 µM | > 60% | 0.768 µM | 27.4 ± 2.43 µM | > 60% | – | – |
| O=C(OC[C@H]1O[C@@H](OC(=O)c2cc(O)c(O)c(O)c2)[C@H](OC(=O)c2cc(O)c(O)c(O)c2)[C@@H](OC(=O)c2cc(O)c(O)c(O)c2)[C@@H]1OC(=O)c1cc(O)c(O)c(O)c1)c1cc(O)c(O)c(O)c1 [PGG, 1,2,3,4,6-penta-O-galloyl-β-D-glucose] | – | 8.22 µM | – | – | – | – | – | – | > 100 µM | – |
| Cn1cnc(Cn2c(=O)[nH]/c(=N\c3cc4cn(C)nc4cc3Cl)n(Cc3cc(F)c(F)cc3F)c2=O)n1 [S-217622, reference compound] | – | – | – | – | – | – | – | – | – | 0.05 µM |
